Laboratory results: publication PMC6333442, “Conserved allosteric pathways for activation of TRPV3 revealed through engineering vanilloid-sensitivity” (eLife, 2019)
Where “and” joins values, the source holds several entries; their conditions need not be identical. Equal values may be shown once.

Experiments:
TRPV3-A606V = TRPV3-A606V (Mus musculus, UniProt Q8K424, A606V)
Experimental: (§1) All channel constructs were expressed in Xenopus laevis oocytes and studied using the two-electrode voltage clamp technique (TEVC) following 1–4 days of incubation after cRNA injection. The animal care and experimental procedures were performed in accordance with the Guide for the Care and Use of Laboratory Animals and were approved by the Animal Care and Use Committee of the National Institute of Neurological Disorders and Stroke (Animal protocol number 1253–17). Oocytes were removed surgically and incubated with agitation for 1 hr in a solution containing (in mM) 82.5 NaCl, 2.5 KCl, 1 MgCl2, 5 HEPES, pH 7.6 (with NaOH), and collagenase (2 mg/ml; Worthington Biochemical, Lakewood, NJ). Defolliculated oocytes were injected with cRNA for each of the constructs and incubated at 17°C in a solution containing (in mM) 96 NaCl, 2 KCl, 1 MgCl2, 1.8 CaCl2, 5 HEPES, pH 7.6 (with NaOH), and gentamicin (50 μg/ml, GIBCO-BRL, Gaithersburg, MD). Oocyte membrane voltage was controlled using an OC-725C oocyte clamp (Warner Instruments, Hamden, CT). Data were filtered at 1–3 kHz and digitized at 20 kHz using pClamp software (Molecular Devices, Sunnyvale, CA) and a Digidata 1440A digitizer (Axon Instruments). Microelectrode resistances were 0.1–1 MΩ when filled with 3 M KCl. For recording TRP channel currents, the external recording solution contained (in mM) 100 KCl, 10 HEPES, pH 7.6 (with KOH). Experiments were performed at room temperature (~22°C), except as indicated otherwise. […] Current time courses were obtained by stepping membrane voltage every 2 s from a holding potential of 0 mV to either −60 or +60 mV for 100 ms, and plotting the mean steady-state current at the end of each voltage step as a function of total recording time. I-V relations were obtained similarly, but voltage was stepped every 2 s to a different value, in 10 mV increments and starting at −60 mV.

TRPV3-4PM = TRPV3-4PM (Mus musculus, UniProt Q8K424, F625L/F656I/F666Y/V587L)
Experimental: as §1

TRPV3-V587L = TRPV3-V587L (Mus musculus, UniProt Q8K424, V587L); settings: -60 mV
Experimental: as §1

TRPV3-4M/V2P = test: Two-electrode voltage clamp, TRPV3-4M/V2P chimera in oocytes; assay type: cell-based, mouse; settings: RTx 100 nM, 2-APB 3 mM, room temperature, ±60 mV
Experimental: All channel constructs were expressed in Xenopus laevis oocytes and studied using the two-electrode voltage clamp technique (TEVC) following 1–4 days of incubation after cRNA injection. The animal care and experimental procedures were performed in accordance with the Guide for the Care and Use of Laboratory Animals and were approved by the Animal Care and Use Committee of the National Institute of Neurological Disorders and Stroke (Animal protocol number 1253–17). Oocytes were removed surgically and incubated with agitation for 1 hr in a solution containing (in mM) 82.5 NaCl, 2.5 KCl, 1 MgCl2, 5 HEPES, pH 7.6 (with NaOH), and collagenase (2 mg/ml; Worthington Biochemical, Lakewood, NJ). Defolliculated oocytes were injected with cRNA for each of the constructs and incubated at 17°C in a solution containing (in mM) 96 NaCl, 2 KCl, 1 MgCl2, 1.8 CaCl2, 5 HEPES, pH 7.6 (with NaOH), and gentamicin (50 μg/ml, GIBCO-BRL, Gaithersburg, MD). Oocyte membrane voltage was controlled using an OC-725C oocyte clamp (Warner Instruments, Hamden, CT). Data were filtered at 1–3 kHz and digitized at 20 kHz using pClamp software (Molecular Devices, Sunnyvale, CA) and a Digidata 1440A digitizer (Axon Instruments). Microelectrode resistances were 0.1–1 MΩ when filled with 3 M KCl. For recording TRP channel currents, the external recording solution contained (in mM) 100 KCl, 10 HEPES, pH 7.6 (with KOH). […]

TRPV3-5PM = biological target: T1, TRPV3-5PM (Mus musculus, UniProt Q8K424, A606V/F625L/F656I/F666Y/V587L); assay type: cell-based
T1 construct: expressed in transfected cells; host or cells: Xenopus laevis oocytes
T1 sequence (Q8K424 1-791 V587L/A606V/F625L/F656I/F666Y): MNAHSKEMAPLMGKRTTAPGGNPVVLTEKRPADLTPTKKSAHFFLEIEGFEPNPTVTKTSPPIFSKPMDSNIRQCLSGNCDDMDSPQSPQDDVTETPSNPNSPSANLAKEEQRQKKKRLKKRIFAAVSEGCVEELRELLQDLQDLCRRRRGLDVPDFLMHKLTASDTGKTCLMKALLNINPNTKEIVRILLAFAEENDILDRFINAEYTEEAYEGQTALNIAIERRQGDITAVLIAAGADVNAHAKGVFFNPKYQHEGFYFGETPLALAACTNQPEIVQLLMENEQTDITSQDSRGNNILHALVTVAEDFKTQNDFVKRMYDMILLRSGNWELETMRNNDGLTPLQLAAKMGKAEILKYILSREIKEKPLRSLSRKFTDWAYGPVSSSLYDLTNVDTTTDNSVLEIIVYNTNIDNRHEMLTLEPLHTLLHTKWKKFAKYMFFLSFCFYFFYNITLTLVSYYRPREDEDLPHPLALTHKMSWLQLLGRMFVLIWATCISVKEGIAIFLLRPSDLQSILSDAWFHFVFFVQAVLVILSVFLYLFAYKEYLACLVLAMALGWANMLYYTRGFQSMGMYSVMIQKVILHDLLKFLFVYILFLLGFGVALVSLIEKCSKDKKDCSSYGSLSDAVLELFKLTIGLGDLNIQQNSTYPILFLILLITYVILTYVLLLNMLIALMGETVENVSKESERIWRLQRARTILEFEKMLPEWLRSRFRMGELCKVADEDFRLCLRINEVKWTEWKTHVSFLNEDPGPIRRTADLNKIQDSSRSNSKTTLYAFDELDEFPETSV
Experimental: as §1

rat TRPV2-4M = biological target: T2, rat TRPV2-4M (Rattus norvegicus, UniProt Q9WUD2, F472S/L507M/L510T/Q530E); set-up: method as in Zhang et al., 2016; settings: ref Zhang et al., 2016; cited from earlier work
T2 construct: expressed in transfected cells; host or cells: Xenopus laevis oocytes
T2 sequence (Q9WUD2 1-761 F472S/L507M/L510T/Q530E): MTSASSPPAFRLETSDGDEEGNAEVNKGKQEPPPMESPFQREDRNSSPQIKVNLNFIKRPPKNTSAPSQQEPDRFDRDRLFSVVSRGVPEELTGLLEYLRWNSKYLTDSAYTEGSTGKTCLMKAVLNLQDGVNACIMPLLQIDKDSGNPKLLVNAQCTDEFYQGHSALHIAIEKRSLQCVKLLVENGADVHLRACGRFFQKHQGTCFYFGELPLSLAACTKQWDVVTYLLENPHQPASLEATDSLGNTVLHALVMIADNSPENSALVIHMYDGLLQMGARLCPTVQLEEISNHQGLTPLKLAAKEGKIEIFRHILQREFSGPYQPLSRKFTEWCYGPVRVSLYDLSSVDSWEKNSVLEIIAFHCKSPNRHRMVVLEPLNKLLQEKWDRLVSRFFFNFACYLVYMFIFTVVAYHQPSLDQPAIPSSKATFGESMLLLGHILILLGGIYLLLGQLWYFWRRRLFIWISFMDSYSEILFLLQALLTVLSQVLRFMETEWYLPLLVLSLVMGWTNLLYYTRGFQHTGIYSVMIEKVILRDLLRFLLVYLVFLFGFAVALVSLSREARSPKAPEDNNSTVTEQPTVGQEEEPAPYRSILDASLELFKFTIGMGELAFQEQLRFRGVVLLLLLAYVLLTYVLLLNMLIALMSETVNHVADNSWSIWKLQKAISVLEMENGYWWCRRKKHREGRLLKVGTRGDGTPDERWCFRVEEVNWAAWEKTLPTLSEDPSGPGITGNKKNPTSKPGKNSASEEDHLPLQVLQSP

TRPV1 = system: TRPV1; set-up: method as in Zhang et al., 2016; settings: ref Zhang et al., 2016; cited from earlier work

Sequence of TRPV3-4PM (Q8K424 whole entry V587L/F625L/F656I/F666Y): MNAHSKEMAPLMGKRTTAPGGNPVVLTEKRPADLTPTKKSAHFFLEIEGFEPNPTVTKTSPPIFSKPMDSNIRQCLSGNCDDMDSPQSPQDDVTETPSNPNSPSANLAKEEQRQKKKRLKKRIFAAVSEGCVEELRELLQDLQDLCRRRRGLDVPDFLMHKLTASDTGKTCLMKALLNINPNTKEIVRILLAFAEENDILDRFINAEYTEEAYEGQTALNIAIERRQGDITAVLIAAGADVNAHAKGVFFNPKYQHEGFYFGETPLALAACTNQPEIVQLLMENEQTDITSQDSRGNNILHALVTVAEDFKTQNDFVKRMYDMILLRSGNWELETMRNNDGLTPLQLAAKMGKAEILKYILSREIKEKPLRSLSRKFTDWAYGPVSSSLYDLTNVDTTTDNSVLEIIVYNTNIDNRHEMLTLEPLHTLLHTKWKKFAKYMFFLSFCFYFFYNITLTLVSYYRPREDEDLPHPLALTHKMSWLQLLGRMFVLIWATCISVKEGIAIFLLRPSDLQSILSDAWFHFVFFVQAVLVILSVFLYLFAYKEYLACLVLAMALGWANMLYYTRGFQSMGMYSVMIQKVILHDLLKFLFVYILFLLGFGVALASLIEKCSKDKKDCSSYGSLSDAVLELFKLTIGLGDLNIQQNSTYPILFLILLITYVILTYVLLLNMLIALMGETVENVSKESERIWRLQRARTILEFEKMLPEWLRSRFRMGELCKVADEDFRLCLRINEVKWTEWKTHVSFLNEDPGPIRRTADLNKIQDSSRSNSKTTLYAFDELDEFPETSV
Sequence of TRPV3-A606V (Q8K424 whole entry A606V): as the sequence (Q8K424 whole entry V587L/F625L/F656I/F666Y) above, with L587V, A606V, L625F, I656F, Y666F counted along it
Sequence of TRPV3-V587L (Q8K424 whole entry V587L): as the sequence (Q8K424 whole entry V587L/F625L/F656I/F666Y) above, with L625F, I656F, Y666F counted along it

Question: What does the source list for `NCCOB(c1ccccc1)c1ccccc1` [2-APB, 2-aminoethoxydiphenyl borate]?
Answer: s (slope) of Hill fit, 2-APB concentration-response (TRPV3-A606V; -60 mV): 2.72; EC50 (TRPV3-A606V; read-out: apparent affinity (EC50) for activation by 2-APB, -60 mV, room temperature, Hill fit): 132 ± 7 µM; increase in the apparent affinity for 2-APB (TRPV3-A606V; relative to WT TRPV3): ~ 3.5 fold and 3.5 fold; s (slope) of Hill fit, 2-APB concentration-response (TRPV3-4PM; -60 mV): 1.84; shift in the apparent affinity for 2-APB (TRPV3-4PM; relative to WT TRPV3): ~ 2 fold and 2 fold; s (slope) of Hill fit, 2-APB concentration-response (TRPV3-V587L): 2.28; EC50 (TRPV3-V587L; read-out: apparent affinity (EC50) for activation by 2-APB, room temperature, Hill fit): 443 ± 13 µM; channel activation (current response) (TRPV3-4M/V2P): could be activated; increase in the apparent affinity for 2-APB (TRPV3-5PM): 20 fold and > 20 fold and ~ 20 fold; s (slope) of Hill fit, 2-APB concentration-response (TRPV3-5PM): 1.32; EC50 (TRPV3-5PM; read-out: apparent affinity (EC50) for activation by 2-APB): 19 ± 2 µM

Question: With `C=C(C)[C@]12C[C@@H](C)[C@@]34O[C@](Cc5ccccc5)(O[C@@H]1[C@@H]3C=C(COC(=O)Cc1ccc(O)c(OC)c1)C[C@]1(O)C(=O)C(C)=C[C@@H]41)O2` [RTx, resiniferatoxin] as the molecule, how does the “saturating concentration of RTx” value (rat TRPV2-4M) read?
Answer: 100 nM

Question: And the “saturating concentration of RTx” value (TRPV1)?
Answer: 100 nM
